From PubChem BioAssay (NCI)
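Following 48 hours of exposure in 96-well plates, responses at five concentrations were used to interpolate endpoints linearly. TGI denotes the concentration required for complete inhibition of growth.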

Legend:
Experiment in all cases: NCI tumour cell line growth inhibition, 48 h
786-0 renal = tested on: 786-0 renal
A498 renal = tested on: A498 renal
A549 NSCLC = tested on: A549 NSCLC
ACHN renal = tested on: ACHN renal
BT-549 breast = tested on: BT-549 breast
CAKI-1 renal = tested on: CAKI-1 renal
CCRF-CEM leukemia = tested on: CCRF-CEM leukemia
COLO 205 colon = tested on: COLO 205 colon
DU-145 prostate = tested on: DU-145 prostate
EKVX NSCLC = tested on: EKVX NSCLC
HCC-2998 colon = tested on: HCC-2998 colon
HCT-116 colon = tested on: HCT-116 colon
HCT-15 colon = tested on: HCT-15 colon
HL-60(TB) leukemia = tested on: HL-60(TB) leukemia
HOP-62 NSCLC = tested on: HOP-62 NSCLC
HOP-92 NSCLC = tested on: HOP-92 NSCLC
HS 578T breast = tested on: HS 578T breast
HT29 colon = tested on: HT29 colon
IGROV1 ovarian = tested on: IGROV1 ovarian
K-562 leukemia = tested on: K-562 leukemia
KM12 colon = tested on: KM12 colon
LOX IMVI melanoma = tested on: LOX IMVI melanoma
M14 melanoma = tested on: M14 melanoma
MALME-3M melanoma = tested on: MALME-3M melanoma
MCF7 breast = tested on: MCF7 breast
MDA-MB-231 breast = tested on: MDA-MB-231 breast
MDA-MB-435 = tested on: MDA-MB-435
MDA-N = tested on: MDA-N
MOLT-4 leukemia = tested on: MOLT-4 leukemia
NCI-H226 lung = tested on: NCI-H226 lung
NCI-H23 lung = tested on: NCI-H23 lung
NCI-H460 lung = tested on: NCI-H460 lung
NCI-H522 lung = tested on: NCI-H522 lung
NCI/ADR-RES ovarian = tested on: NCI/ADR-RES ovarian
OVCAR-3 ovarian = tested on: OVCAR-3 ovarian
OVCAR-4 ovarian = tested on: OVCAR-4 ovarian
OVCAR-5 ovarian = tested on: OVCAR-5 ovarian
OVCAR-8 ovarian = tested on: OVCAR-8 ovarian
PC-3 prostate = tested on: PC-3 prostate
RPMI-8226 leukemia = tested on: RPMI-8226 leukemia
RXF 393 renal = tested on: RXF 393 renal
SF-268 CNS = tested on: SF-268 CNS
SF-295 CNS = tested on: SF-295 CNS
SF-539 CNS = tested on: SF-539 CNS
SK-MEL-2 melanoma = tested on: SK-MEL-2 melanoma
SK-MEL-28 melanoma = tested on: SK-MEL-28 melanoma
SK-MEL-5 melanoma = tested on: SK-MEL-5 melanoma
SK-OV-3 ovarian = tested on: SK-OV-3 ovarian
SN12C renal = tested on: SN12C renal
SNB-19 CNS = tested on: SNB-19 CNS
SNB-75 CNS = tested on: SNB-75 CNS
SR leukemia = tested on: SR leukemia
SW-620 colon = tested on: SW-620 colon
T-47D breast = tested on: T-47D breast
TK-10 renal = tested on: TK-10 renal
U251 CNS = tested on: U251 CNS
UACC-257 melanoma = tested on: UACC-257 melanoma
UACC-62 melanoma = tested on: UACC-62 melanoma
UO-31 renal = tested on: UO-31 renal

C=CN1CCN(c2ccccc2)P1(=O)Oc1ccccc1 (stereo not drawn)
TGI (786-0 renal): > 100 µM
TGI (A498 renal): > 100 µM
TGI (A549 NSCLC): > 100 µM
TGI (ACHN renal): > 100 µM
TGI (BT-549 breast): > 100 µM
TGI (CAKI-1 renal): > 100 µM
TGI (CCRF-CEM leukemia): > 100 µM
TGI (COLO 205 colon): > 100 µM
TGI (DU-145 prostate): > 100 µM
TGI (EKVX NSCLC): > 100 µM
TGI (HCC-2998 colon): > 100 µM
TGI (HCT-116 colon): > 100 µM
TGI (HCT-15 colon): > 100 µM
TGI (HL-60(TB) leukemia): > 100 µM
TGI (HOP-62 NSCLC): > 100 µM
TGI (HOP-92 NSCLC): > 100 µM
TGI (HS 578T breast): > 100 µM
TGI (HT29 colon): > 100 µM
TGI (IGROV1 ovarian): > 100 µM
TGI (K-562 leukemia): > 100 µM
TGI (KM12 colon): > 100 µM
TGI (LOX IMVI melanoma): > 100 µM
TGI (M14 melanoma): > 100 µM
TGI (MALME-3M melanoma): > 100 µM
TGI (MCF7 breast): > 100 µM
TGI (MDA-MB-231 breast): > 100 µM
TGI (MDA-MB-435): > 100 µM
TGI (MDA-N): > 100 µM
TGI (MOLT-4 leukemia): > 100 µM
TGI (NCI-H226 lung): > 100 µM
TGI (NCI-H23 lung): > 100 µM
TGI (NCI-H460 lung): > 100 µM
TGI (NCI-H522 lung): > 100 µM
TGI (NCI/ADR-RES ovarian): > 100 µM
TGI (OVCAR-3 ovarian): > 100 µM
TGI (OVCAR-4 ovarian): > 100 µM
TGI (OVCAR-5 ovarian): > 100 µM
TGI (OVCAR-8 ovarian): > 100 µM
TGI (PC-3 prostate): > 100 µM
TGI (RPMI-8226 leukemia): > 100 µM
TGI (RXF 393 renal): > 100 µM
TGI (SF-268 CNS): > 100 µM
TGI (SF-295 CNS): > 100 µM
TGI (SF-539 CNS): > 100 µM
TGI (SK-MEL-2 melanoma): > 100 µM
TGI (SK-MEL-28 melanoma): > 100 µM
TGI (SK-MEL-5 melanoma): > 100 µM
TGI (SK-OV-3 ovarian): > 100 µM
TGI (SN12C renal): > 100 µM
TGI (SNB-19 CNS): > 100 µM
TGI (SNB-75 CNS): > 100 µM
TGI (SR leukemia): > 100 µM
TGI (SW-620 colon): > 100 µM
TGI (T-47D breast): > 100 µM
TGI (TK-10 renal): > 100 µM
TGI (U251 CNS): > 100 µM
TGI (UACC-257 melanoma): > 100 µM
TGI (UACC-62 melanoma): > 100 µM
TGI (UO-31 renal): 92.8 µM

COc1ccc(-c2cc(-c3ccccc3)nc(/N=C\c3ccccc3)n2)c(O)c1
TGI (786-0 renal): > 100 µM
TGI (A498 renal): > 100 µM
TGI (A549 NSCLC): > 100 µM
TGI (ACHN renal): > 100 µM
TGI (BT-549 breast): > 100 µM
TGI (CAKI-1 renal): 8.39 µM
TGI (CCRF-CEM leukemia): > 100 µM
TGI (COLO 205 colon): > 100 µM
TGI (DU-145 prostate): > 100 µM
TGI (EKVX NSCLC): > 100 µM
TGI (HCC-2998 colon): > 100 µM
TGI (HCT-116 colon): > 100 µM
TGI (HCT-15 colon): > 100 µM
TGI (HL-60(TB) leukemia): > 35.4 µM
TGI (HOP-62 NSCLC): > 100 µM
TGI (HOP-92 NSCLC): > 100 µM
TGI (HS 578T breast): > 100 µM
TGI (HT29 colon): > 100 µM
TGI (IGROV1 ovarian): > 100 µM
TGI (K-562 leukemia): > 100 µM
TGI (KM12 colon): > 100 µM
TGI (LOX IMVI melanoma): > 100 µM
TGI (M14 melanoma): > 100 µM
TGI (MALME-3M melanoma): > 100 µM
TGI (MCF7 breast): > 100 µM
TGI (MDA-MB-231 breast): > 100 µM
TGI (MDA-MB-435): > 100 µM
TGI (MDA-N): > 100 µM
TGI (MOLT-4 leukemia): > 100 µM
TGI (NCI-H226 lung): > 100 µM
TGI (NCI-H23 lung): > 100 µM
TGI (NCI-H460 lung): > 100 µM
TGI (NCI-H522 lung): > 100 µM
TGI (NCI/ADR-RES ovarian): > 100 µM
TGI (OVCAR-3 ovarian): > 100 µM
TGI (OVCAR-4 ovarian): > 100 µM
TGI (OVCAR-5 ovarian): > 100 µM
TGI (OVCAR-8 ovarian): > 100 µM
TGI (PC-3 prostate): > 100 µM
TGI (RPMI-8226 leukemia): 5.71 µM
TGI (RXF 393 renal): > 100 µM
TGI (SF-268 CNS): > 100 µM
TGI (SF-295 CNS): > 100 µM
TGI (SF-539 CNS): > 100 µM
TGI (SK-MEL-2 melanoma): > 100 µM
TGI (SK-MEL-28 melanoma): > 100 µM
TGI (SK-MEL-5 melanoma): > 100 µM
TGI (SK-OV-3 ovarian): > 100 µM
TGI (SN12C renal): > 100 µM
TGI (SNB-19 CNS): > 100 µM
TGI (SNB-75 CNS): > 100 µM
TGI (SR leukemia): > 24.1 µM
TGI (SW-620 colon): > 100 µM
TGI (T-47D breast): > 100 µM
TGI (TK-10 renal): > 100 µM
TGI (U251 CNS): > 100 µM
TGI (UACC-257 melanoma): > 100 µM
TGI (UACC-62 melanoma): > 100 µM
TGI (UO-31 renal): > 100 µM
